From patent US4771041A, “Method for combating virus infection” (priority 1976, dated 1988)
pIC50: −log10 of the molar value.

What was measured:
[1] = target: calf thymus DNA dependent RNA polymerase fraction B (DCB) (Bos taurus, UniProt A5PJW8+G3MZY8); test: Inhibition of calf thymus DNA dependent RNA polymerase fraction B; type: biochemical; conditions: read-out: Inhibition % DCB
Description: (§1) Polymerases, nucleic acid template nucleoside triphosphates, of which guanosine triphosphate is tritium-labelled, salt and buffer are mixed at 0° C. in a total volume of 125 μl (for herpes DNA polymerase, see F. below). The concentrations of the nucleoside triphosphates UTP (uridine triphosphate), CTP (cytidinetriphosphate), GTP (guanosinetriphosphate) and ATP (adenosinetriphosphate) were generall 400, 400, 400, and 2000 μM, respectively. The test compound is also added in various concentrations to the mixture obtained. A standard mixture without test compound is also prepared using the same amounts of the ingredients. The enzyme reaction, i.e. synthesis of nucleic acid, is started by incubating the mixture at 37° C. For influenza RNA polymerases the temperature is 33° C. The reaction is allowed to proceed for 60 minutes in the assay of influenza and Micrococcus polymerases. […] The incorporation of labelled monomer into trichloroacetic acid insoluble nucleic acid product was measured in the following way. […] After drying the discs are measured for radioactivity in a liquid scintillation counter. The difference in radioactivity between samples with and without added compound is used to calculate the inhibition of the polymerase activity. The inhibition is expressed as percentage inhibition using the radioactivity of the standard sample as basis. […]

[2] = target: T1, E. coli DNA dependent RNA polymerase (Escherichia coli, UniProt P0A8T7+P0A8V2); test: Inhibition of E. coli DNA dependent RNA polymerase; type: biochemical
T1 construct: purchased Sigma
Description: as §1

herpes simplex type 1 = test: Herpes simplex type 1 plaque reduction assay on GMK monolayers; type: cell-based; conditions: mean of three experiments
Description: The inhibition of influenza virus and herpes virus by phosphonoformic acid has been measured as plaque reaction according to the following procedures.
H. Inhibition by phosphonoformic acid of herpes simplex type 1 plaque
The plaque reduction assay for herpes simplex type 1 was performed on GMK (Green Monkey Kidney) cells as described by Ejereito et el., J. Gen. Virol. 2 (1968) 357. Monolayers on 5 cm petri dishes were used and after virus adsorption phosphonoformic acid was added in the medium.

[3] = test system: reverse transcriptase from RMuLV; test: Cell-free reverse transcriptase inhibition, RMuLV; type: biochemical, Rauscher murine leukemia virus; conditions: template/primer (rA)n.(dT)10
Description: Reverse transcriptase from various retroviruses have been tested in cell-free assays for inhibition by phosphonoformic acid and phosphonoacetic acid. The assay conditions have been described by Collaborative Research, Inc, 1365 Main Street, Waltham, Mass., USA "Assay kit for mammalian viral reverse transcriptase". BLV and VV were prepared in this laboratory and all other viruses and viral enzyme were obtained from Dr. K Nilsson, Department of Pathology, University of Uppsala and from Boehringer Mannheim, Germany. Phosphonoformic acid (PFA) and phosphonoacetic acid (PAA) were added at pH 7.2 to the reaction mixtures at the start of the reaction.
Rauscher murine leukemia virus; RMuLV, visna virus; VV, avian myeloblastosis virus; AMV, bovine leukemia virus; BLV, baboon endogenous virus; BaEV, simian sarcoma virus; SSV.

[4] = test system: YBA solid tumors (Moloney virus); test: Survival of CBA mice bearing YBA solid tumors; type: in vivo; conditions: 0.5% in the drinking water, pH 7.2; FIG. 3
Description: The inhibition of reverse transcriptase by phosphonoformic acid (PFA) has prompted an investigation of the effect of PFA on animals with tumors where retroviruses are implicated. Ehrlich ascites tumors (Friend virus) in NMRI mice and YBA solid tumors (Moloney virus) in CBA mice have been used.
NMRI mice were inoculated intraperitoneally with 0.1 ml of a 1/10 dilution of ascitic fluid from a mouse with an Ehrlich ascites tumor. Nine mice were given intraperitoneally 100 mg/kg of PFA per day as a 2% solution at pH 7.2, and 9 mice were treated with 0.95% NaCl ip. CBA mice were inoculated with 7×10^6 cells subcutaneously in the flank. Fifteen CBA mice were given 0.5% PFA at pH 7.2 in the drinking water and fifteen water without addition.

[5] = Toxicity controls with substance in uninfected mice; type: in vivo
From the text: Toxicity controls with substance were given to uninfected animals.

HTLV-III = HTLV-III replication in H9 cells; type: cell-based; conditions: Human immunodeficiency virus 1, 144 h
Description: H9 cells constitute a human cell line that can be chronically infected with HTLV-III virus. (Science 1984; 224: 497-500). H9 cells were treated with polybrene (2 μg/ml) for 30 min. at 37° C., washed free of polybrene and infected with 2×10^8 HTLV-III virus particles per 4×10^5 H9 cells. […] The cultures were analyzed for HTLV-III reverse transcriptase activity as described above.

[6] = guinea pig, in vivo
Description: Phosphonoformic acid and phosphonoacetic acid were used as their trisodium and disodium salts, respectively. The test substances were used in 1% solutions.
Guinea-pigs of the Dunkin-Hartley strain of both sexes and weighing 200-300 g were used. The back of the animal was shaved and depilated with Opilca® on the day before starting the application of the solutions. The back was divided into six squares in the middle of which 30 μl of the test solutions was applied. In a given group of animals the different solutions were applied in a randomized order alternating between sites. However, the same site was used for repeated application of a given solution.
The irritation was scored on scales of 0 to 3, each grade corresponding to the following specific criteria of irritation:
1=slight erythema or edema or no hair growth
2=moderate erythema or edema or skin discoloration
3=marked erythema or edema or necrosis including crust formation.
The scoring was carried out blindly using coded solutions.
The scores of all the applications for a given solution and time were added and the average score was calculated.
The solvent used was a mixture of glycerol 10.0% (w/v), Tween 80 0.1% and aq sterile ad 100. All solutions were adjusted to pH 6.5 with hydrochloric acid or aqueous sodium hydroxide as required. Thirty μl of 1.0% solutions of phosphonoformic acid and phosphonoacetic acid respectively was applied twice daily during three days to each of six guinea pigs.

T1 sequence (P0A8V2 whole entry): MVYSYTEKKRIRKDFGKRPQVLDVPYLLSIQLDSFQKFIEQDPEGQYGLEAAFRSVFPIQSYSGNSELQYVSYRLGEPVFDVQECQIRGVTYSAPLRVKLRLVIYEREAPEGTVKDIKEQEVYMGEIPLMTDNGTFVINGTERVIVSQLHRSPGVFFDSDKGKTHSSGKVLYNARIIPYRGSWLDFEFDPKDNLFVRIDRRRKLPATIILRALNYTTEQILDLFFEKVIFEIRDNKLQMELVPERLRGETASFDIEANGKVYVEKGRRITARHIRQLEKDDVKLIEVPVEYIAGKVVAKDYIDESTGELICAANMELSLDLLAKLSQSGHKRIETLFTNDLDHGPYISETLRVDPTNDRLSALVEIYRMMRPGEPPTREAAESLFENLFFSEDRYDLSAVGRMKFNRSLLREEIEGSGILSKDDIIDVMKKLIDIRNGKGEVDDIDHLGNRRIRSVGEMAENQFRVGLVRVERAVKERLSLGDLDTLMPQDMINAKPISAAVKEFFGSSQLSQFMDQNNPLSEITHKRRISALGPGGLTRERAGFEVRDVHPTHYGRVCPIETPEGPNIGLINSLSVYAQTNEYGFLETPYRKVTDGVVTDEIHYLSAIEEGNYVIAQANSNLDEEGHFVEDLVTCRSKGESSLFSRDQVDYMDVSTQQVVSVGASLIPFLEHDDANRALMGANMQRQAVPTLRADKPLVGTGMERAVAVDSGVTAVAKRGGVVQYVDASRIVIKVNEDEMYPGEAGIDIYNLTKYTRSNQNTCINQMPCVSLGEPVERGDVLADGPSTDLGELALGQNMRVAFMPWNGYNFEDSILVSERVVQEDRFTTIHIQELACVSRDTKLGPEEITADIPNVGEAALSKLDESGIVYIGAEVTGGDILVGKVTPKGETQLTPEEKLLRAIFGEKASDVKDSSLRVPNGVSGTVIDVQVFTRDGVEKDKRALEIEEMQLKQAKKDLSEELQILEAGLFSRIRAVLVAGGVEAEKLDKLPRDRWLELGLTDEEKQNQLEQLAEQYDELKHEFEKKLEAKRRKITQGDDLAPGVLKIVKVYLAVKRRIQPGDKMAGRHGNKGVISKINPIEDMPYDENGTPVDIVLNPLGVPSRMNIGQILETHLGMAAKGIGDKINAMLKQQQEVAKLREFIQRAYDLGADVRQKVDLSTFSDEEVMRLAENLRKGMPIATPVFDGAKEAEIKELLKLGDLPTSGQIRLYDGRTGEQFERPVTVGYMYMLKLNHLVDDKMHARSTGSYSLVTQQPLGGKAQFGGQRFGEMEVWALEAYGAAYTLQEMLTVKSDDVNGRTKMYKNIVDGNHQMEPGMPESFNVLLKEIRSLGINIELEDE
T1 sequence (P0A8T7 whole entry): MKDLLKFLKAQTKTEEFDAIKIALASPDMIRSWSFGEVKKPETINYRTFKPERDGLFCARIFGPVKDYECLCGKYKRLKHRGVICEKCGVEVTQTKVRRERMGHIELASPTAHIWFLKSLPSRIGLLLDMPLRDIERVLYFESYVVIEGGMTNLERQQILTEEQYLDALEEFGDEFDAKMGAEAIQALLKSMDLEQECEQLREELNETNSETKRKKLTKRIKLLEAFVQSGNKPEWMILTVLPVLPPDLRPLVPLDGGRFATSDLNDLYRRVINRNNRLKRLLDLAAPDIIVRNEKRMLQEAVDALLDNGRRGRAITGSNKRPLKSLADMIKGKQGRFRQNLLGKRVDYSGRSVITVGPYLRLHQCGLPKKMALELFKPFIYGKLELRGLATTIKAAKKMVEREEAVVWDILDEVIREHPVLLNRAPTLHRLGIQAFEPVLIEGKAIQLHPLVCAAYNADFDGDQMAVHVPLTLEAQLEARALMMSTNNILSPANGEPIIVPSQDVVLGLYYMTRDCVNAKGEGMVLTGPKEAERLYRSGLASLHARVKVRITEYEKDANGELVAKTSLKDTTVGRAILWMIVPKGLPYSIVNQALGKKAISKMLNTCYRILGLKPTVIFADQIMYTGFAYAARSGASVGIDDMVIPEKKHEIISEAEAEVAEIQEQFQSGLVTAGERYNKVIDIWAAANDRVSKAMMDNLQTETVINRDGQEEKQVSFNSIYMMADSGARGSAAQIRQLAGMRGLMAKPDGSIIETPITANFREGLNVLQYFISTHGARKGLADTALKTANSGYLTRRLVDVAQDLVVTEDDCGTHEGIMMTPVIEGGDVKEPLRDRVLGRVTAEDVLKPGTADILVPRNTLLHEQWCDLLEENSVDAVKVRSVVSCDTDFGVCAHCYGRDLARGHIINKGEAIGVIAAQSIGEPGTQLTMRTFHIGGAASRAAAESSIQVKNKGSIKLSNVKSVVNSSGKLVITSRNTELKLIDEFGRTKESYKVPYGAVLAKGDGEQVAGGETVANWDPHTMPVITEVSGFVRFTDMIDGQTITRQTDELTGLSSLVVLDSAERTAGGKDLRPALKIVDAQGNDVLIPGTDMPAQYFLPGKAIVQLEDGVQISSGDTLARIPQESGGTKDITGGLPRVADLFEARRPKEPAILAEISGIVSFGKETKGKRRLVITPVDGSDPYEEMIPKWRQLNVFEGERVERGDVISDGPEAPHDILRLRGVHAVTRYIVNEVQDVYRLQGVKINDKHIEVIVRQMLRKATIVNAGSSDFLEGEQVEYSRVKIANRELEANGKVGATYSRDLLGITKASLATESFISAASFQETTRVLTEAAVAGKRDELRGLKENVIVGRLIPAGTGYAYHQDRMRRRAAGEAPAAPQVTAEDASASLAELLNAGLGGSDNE
T1 sequence (P0A7Z4 whole entry, further chain): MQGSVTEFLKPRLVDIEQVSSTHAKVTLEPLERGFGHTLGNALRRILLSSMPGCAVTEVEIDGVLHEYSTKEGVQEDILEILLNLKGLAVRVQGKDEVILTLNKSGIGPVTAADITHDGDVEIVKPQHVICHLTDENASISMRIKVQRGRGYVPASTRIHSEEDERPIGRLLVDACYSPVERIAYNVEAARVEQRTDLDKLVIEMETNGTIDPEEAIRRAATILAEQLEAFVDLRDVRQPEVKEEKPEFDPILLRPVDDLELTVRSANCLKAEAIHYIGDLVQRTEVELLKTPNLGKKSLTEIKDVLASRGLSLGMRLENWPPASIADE
T1 sequence (P0A800 whole entry, further chain): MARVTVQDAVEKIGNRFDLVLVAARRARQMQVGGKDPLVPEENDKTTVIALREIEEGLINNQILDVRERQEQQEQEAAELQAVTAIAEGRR

**Q.** With O=C(O)P(=O)(O)O [phosphonoformic acid] as the compound, how does the inhibition at 500 µM [1] read?
**A.** The inhibition at 500 µM was 0%.

**Q.** And the inhibition at 500 µM [2]?
**A.** The inhibition at 500 µM was 3%.

**Q.** And the inhibition at 1 µM (herpes simplex type 1; Human alphaherpesvirus 1, 1 μM)?
**A.** The inhibition at 1 µM was 0%.

**Q.** And the inhibition at 15 µM (herpes simplex type 1; Human alphaherpesvirus 1, 15 μM)?
**A.** Its inhibition at 15 µM is 50%.

**Q.** And the inhibition at 100 µM (herpes simplex type 1; Human alphaherpesvirus 1, 100 μM)?
**A.** Its inhibition at 100 µM is 90%.

**Q.** What about the Percent inhibition ([3]; 10 μM) of the same compound?
**A.** The Percent inhibition was 90%.

**Q.** What about the Percent inhibition ([3]; 100 μM) of the same compound?
**A.** The Percent inhibition was 96%.

**Q.** And the Percent inhibition ([3]; 500 μM)?
**A.** The Percent inhibition was > 99%.

**Q.** And the “survival of mice inoculated with YBA cells” value [4]?
**A.** Its value is “increased survival”.

**Q.** And the “deaths in substance control group” value ([5]; 0.5% in the drinking water, 10 mice)?
**A.** The value was “No mice died”.

**Q.** What about the “deaths in toxicity control group” value ([5]; uninfected mice, 100 mg/kg/day, 10 animals) of the same compound?
**A.** The value was “No mice died”.

**Q.** And the inhibition at 300 µM (HTLV-III; 300 μM, after six days of incubation)?
**A.** Its inhibition at 300 µM is > 95%.

**Q.** What about the pIC50 (HTLV-III; after 6 days of incubation, read-out: concentration giving 50% inhibition of HTLV-III replication) of the same compound?
**A.** The pIC50 was 4.30.

**Q.** And the “skin condition after two weeks” value [6]?
**A.** Its value is “the skin is normal with hair after two weeks”.
